Reference: US20240342141A1, “Method for Treating or Preventing Diabetic Nephropathy” (Japan Tobacco Inc., priority 2015, published 2024)

Key:
[1] = system: SHR/NDmcr-cp rat model of diabetic nephropathy; assay: Suppressive effect on tubulointerstitial fibrosis in a rat model of diabetic nephropathy (sirius red staining); format: in vivo; conditions: male SHR/NDmcr-cp rats, Compound A 0.01% diet from 12 to 40 weeks of age (28 weeks), kidney sections; FIG. 1
Description: Experiment 1. […] Male […] (Japan SLC, Inc.) was used as an experiment animal, and male WKY/Izm rat was used as a normal control (WKY group). The above-mentioned two types of rats were purchased at 6 weeks of age. After confirming that […] have hyperglycemia, hypertension, and hyperlipidemia; Compound A (0.01% diet) and vehicle (powdered diet) were administered to Compound A Group and Vehicle Group respectively from 12 weeks of age to 40 weeks of age. At 40 weeks of age, the rats were exsanguinated under isoflurane anesthesia, kidney was collected and fixed in 10% neutral buffered formalin, and then paraffin-embedded section was prepared. After deparaffinization, the section was stained with an iron hematoxylin solution for 8 minutes and then with a sirius red solution for 1 hour. The iron hematoxylin solution was prepared at the time of use by mixing equal volume of Solution 1 (dissolving 1 g hematoxylin in 100 mL ethanol) and Solution 2 (dissolving 2 g ferric chloride (FeCl3·6H2O) and 1 mL of 25% hydrochloric acid in 95 mL distilled water). […] An image of the sirius red-stained section was captured with HS All-in-One Fluorescence Microscope (BZ-9000, KEYENCE CORPORATION), and the ratio (%) of sirius red-stained area relative to the whole kidney area was measured by a built-in image analysis function.

prolyl hydroxylase (PHD) = conditions: as described in Patent Document 1 (WO 2011/007856); cited from earlier work
[2] = system: hypoxia-inducible factor (HIF); conditions: as described in Patent Document 1 (WO 2011/007856); cited from earlier work
[3] = system: SD rat model of renal ischemia-reperfusion injury; assay: Suppressive effect on tubulointerstitial fibrosis in a rat model of renal ischemia-reperfusion injury (sirius red staining); format: in vivo; conditions: male SD rats, oral once daily for 6 days starting 3 days before ischemia-reperfusion injury, 0.2 or 2 mg/mL at 5 mL/kg; kidney 4 weeks after injury; FIG. 3
Description: Experiment 2. […] Male SD rat at 6 weeks of age (CHARLES RIVER LABORATORIES JAPAN, INC.) was used as an experiment animal. 0.5% (w/v) Methylcellulose (MC) was orally administered to Vehicle Group and Sham Group, and 0.2 mg/mL or 2 mg/mL Compound A suspended in 0.5% (w/v) methylcellulose (MC) was orally administered to Compound A Group at a dose of 5 mL/kg once daily for 6 days from 3 days before the ischemia-reperfusion injury. On one day before the ischemia-reperfusion injury, the right kidney was removed under isoflurane anesthesia. The ischemia-reperfusion injury was induced by clamping the left renal vein and artery for 45 minutes and then following reperfusion under isoflurane anesthesia, whereas such a surgery treatment was not performed for the Sham Group. 4 Weeks after the ischemia-reperfusion injury, the rats were exsanguinated under isoflurane anesthesia, kidney was collected and fixed in 10% neutral buffered formalin, and then paraffin-embedded section was prepared. Staining and image analysis were performed by a similar method as described above.

O=C(O)CNC(=O)c1c(O)cc(CCc2ccccc2)n2ncnc12 [Compound A, 2-({[7-hydroxy-5-(2-phenylethyl)-[1,2,4]triazolo[1,5-a]pyridin-8-yl]carbonyl}amino)acetic acid]
tubulointerstitial fibrosis, sirius red-stained area ratio [1]: suppressive effect on tubulointerstitial fibrosis
prolyl hydroxylase (PHD) inhibitory action (prolyl hydroxylase (PHD)): has a prolyl hydroxylase (PHD) inhibitory action
stabilization of hypoxia-inducible factor (HIF) [2]: stabilizes the hypoxia-inducible factor (HIF)
tubulointerstitial fibrosis, sirius red-stained area ratio [3]: suppressive effect on tubulointerstitial fibrosis
